Target: T1, recombinant AG1 protein (SEQ ID No:13), E-α-bisabolene synthase (Abies grandis, UniProt O81086)
T1 construct: GST (fusion partner of vector pGEX-4T-2); made in house; host or cells: E. coli XL1-Blue/pGAG1
T1 sequence (O81086 1-817): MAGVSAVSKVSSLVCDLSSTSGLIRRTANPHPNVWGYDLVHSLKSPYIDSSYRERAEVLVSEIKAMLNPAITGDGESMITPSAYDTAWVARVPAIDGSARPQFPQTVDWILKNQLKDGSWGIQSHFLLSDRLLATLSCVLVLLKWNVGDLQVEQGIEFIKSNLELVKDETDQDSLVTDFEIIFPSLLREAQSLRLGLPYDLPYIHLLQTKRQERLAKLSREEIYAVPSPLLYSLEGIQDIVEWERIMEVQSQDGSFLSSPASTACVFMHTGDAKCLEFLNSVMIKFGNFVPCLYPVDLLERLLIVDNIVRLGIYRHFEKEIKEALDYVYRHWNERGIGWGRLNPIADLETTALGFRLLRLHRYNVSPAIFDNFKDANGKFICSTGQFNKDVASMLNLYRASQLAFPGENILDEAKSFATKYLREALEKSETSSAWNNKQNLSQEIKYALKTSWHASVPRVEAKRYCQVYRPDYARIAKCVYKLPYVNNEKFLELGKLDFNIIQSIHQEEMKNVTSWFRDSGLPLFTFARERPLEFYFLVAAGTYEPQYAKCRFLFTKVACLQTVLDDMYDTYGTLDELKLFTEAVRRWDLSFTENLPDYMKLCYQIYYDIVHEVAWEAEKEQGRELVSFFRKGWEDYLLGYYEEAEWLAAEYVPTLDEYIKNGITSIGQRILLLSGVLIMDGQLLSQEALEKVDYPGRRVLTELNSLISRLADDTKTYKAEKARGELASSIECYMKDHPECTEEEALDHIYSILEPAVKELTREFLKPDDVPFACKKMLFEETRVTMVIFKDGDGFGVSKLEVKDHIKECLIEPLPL
Test: Monoterpene, sesquiterpene and diterpene synthase assays of recombinant AG1 protein expressed in E. coli
Type: biochemical
Settings: extracts of XL1-Blue/pGAG1, 31° C., 2 h
Experimental: Expression of cDNA Clone AG1 (SEQ ID No:12) in E. coli. Plasmid pGAG1 was transformed into E. coli XL1-Blue (Sambrook, J., et al., (1989) Molecular Cloning: A Laboratory Manual (Cold Spring Harbor Lab., Cold Spring Harbor, N.Y.), 2nd Ed). The resulting bacterial strain E. coli XL1-Blue/pGAG1 was grown at 37° C. in 5 ml of LB medium (Sambrock, J., et al., (1989) Molecular Cloning. A Laboratory Manual (Cold Spring Harbor Lab., Cold Spring Harbor, N.Y.), 2nd Ed) supplemented with 100 μg ampicillin/ml and 12.5 μg tetracycline/ml to A600=1.0, then induced by addition of 1 mM isopropyl-1-thio-β-D-galactopyranoside and grown for another 12 h at 20° C. Cells were harvested by centrifugation (2000×g, 10 min) and resuspended in either 1 ml monoterpene synthase assay buffer, 1 ml sesquiterpene synthase assay buffer, or 1 ml diterpene synthase assay buffer (Bohlmann, J., et al., J. Biol. Chem. 272:21784-21792(1997)). […]
Characterization of Products of Recombinant E-α-Bisabolene Synthase Encoded by cDNA Clone AG1 (SEQ ID No:12) in E. coli. […] Mass spectra were compared to those of authentic standards and analyzed by Hewlett-Packard Chemstation software. […]

## CC(C)=CCC/C(C)=C/COP(=O)(O)OP(=O)(O)O [geranyl diphosphate, reference compound]
  conversion of substrate to terpene olefin: inefficiently converted

## CC(C)=CCC/C(C)=C/CC/C(C)=C/CC/C(C)=C/COP(=O)(O)OP(=O)(O)O [geranylgeranyl diphosphate, reference compound]
  conversion of substrate to terpene olefin: no diterpene synthase activity
